Entries after “also recorded” stand apart in the source; their conditions may differ.

One experiment has as its system EAE in NOD mice. Put plainly: Standard EAE clinical score (0-5 scale), MOG-induced EAE, NOD mice. The class given is in vivo, mouse. More on the design: key to Standard EAE Score: n.s. = not significant; *p < 0.05; ***p = 0.0004; ****p < 0.0001; n.i. = not informative. The note with it: for Standard EAE Score: significance vs vehicle. The source says: Animals. C57BL/6 and NOD mice 8 weeks old were purchased from Jackson Laboratories (Bar Harbor, Me.). Animals were maintained under environmentally controlled conditions in a 12-hour light/dark cycle with access to food and water ad libitum. All procedures were done in accordance with the guidelines of the National Institutes of Health and the Chancellor's Animal Research Committee of the University of California, Los Angeles Office for the Protection of Research Subjects.
Reagents. AC-186 was dissolved in either Miglyol 812N liquid oil (Sasol North America) or sesame oil (Sigma Aldrich) as following concentration; 1.5 mg/mL for 3 mg/kg group, 5 mg/mL for 10 mg/kg group, and 15 mg/mL for 30 mg/kg group. Diarylpropionitrile (DPN, Tocris Biosciences) was dissolved in 10% molecular-grade ethanol and diluted with 90% of either Miglyol 812N liquid oil or sesame oil.
EAE and Treatments. Animals were injected subcutaneously with Myelin Oligodendrocyte Glycoprotein (MOG), amino acids 35-55 (200 μg/animal, American Peptides), emulsified in complete Freund's adjuvant (CFA) and supplemented with Mycobacterium tuberculosis H37ra (300 μg/animal, Difco Laboratories), over two sites drained by left inguinal and auxiliary lymph nodes in a total volume of 0.1 ml/mouse. One week later, a booster immunization was delivered over contra lateral lymph nodes. Pertussis toxin (500 ng/mouse) (List Biological Laboratories, Inc.) was injected intraperitoneally on days 0 and 2. Animals were monitored daily for EAE signs based on a standard EAE 0-5 scale scoring system: 0—healthy, 1—complete loss of tail tonicity, 2—loss of righting reflex, 3—partial paralysis, 4—complete paralysis of one or both hind limbs, and 5—moribund. Animals received 0.05 ml of either of 1.5, 5, 15 mg/mL AC-186, vehicle (sesame oil or Miglyol 812N liquid oil), or DPN (8 mg/kg/day) via subcutaneous injections every other day. Animals were treated with AC-186 or vehicle after EAE induction. Specifically, treatment was initiated at the first clear signs of clinical disease (EAE day 13-15), and continued to the endpoint of the experiment.

The next experiment has as its system EAE in C57BL/6 mice. The experiment in a line: Rotarod testing of motor coordination and balance in EAE, C57BL/6 mice. In kind it is in vivo, mouse. More on the design: key to Rotarod Score: n.s. = not significant; *p < 0.05; ***p = 0.0004; ****p < 0.0001; n.i. = not informative. As to conditions: for Rotarod Score: significance vs vehicle. The protocol:
Rotarod Testing. Motor behavior was tested up to two times per week for each mouse using a rotarod apparatus (Med Associates Inc., St. Albans, Vt.). Briefly, animals were placed on a rotating horizontal cylinder for a maximum of 200 seconds. The amount of time the mouse remained walking on the cylinder, without falling, was recorded. Each mouse was tested on a speed of 3-30 rpm and given three trials for any given day. The three trials were averaged to report a single value for an individual mouse, and then averages were calculated for all animals within a given treatment group. The first two trial days prior to immunization (day 0), served as practice trials.
In general terms: Falling from the rotarod earlier than controls is read as motor impairment.

As for `Oc1ccc(C2(c3ccccc3F)CCC(F)(F)CC2)cc1` [AC-186], the “Standard EAE Score” value in the experiment on EAE in NOD mice (NOD F, AC186 10 mg/kg, miglylol vehicle) is “**** (****p < 0.0001)”; in the experiment with EAE in NOD mice (NOD F, AC186 30 mg/kg, miglylol vehicle) it was “**** (****p < 0.0001)”; with EAE in NOD mice (NOD F, AC186 30 mg/kg, sesame vehicle), “n.s”; in the experiment with EAE in NOD mice (NOD M, AC186 10 mg/kg, miglylol vehicle) it was “n.s”; with EAE in NOD mice (NOD M, AC186 30 mg/kg, miglylol vehicle), “**** (****p < 0.0001)”. Also, the EAE score entry with EAE in NOD mice (NOD females, 10 mg/kg in miglyol, vs vehicle, 10 mg/kg) is on record as “improved EAE scores; also recorded: better EAE scores”; in the experiment on EAE in NOD mice (NOD females, 30 mg/kg in miglyol, vs vehicle, 30 mg/kg) it was “improved EAE scores; also recorded: better EAE scores”; in the experiment with EAE in NOD mice (NOD females, high dose AC-186 in sesame oil carrier), “did not ameliorate EAE scores; also recorded: no protection was observed”; in the experiment with EAE in NOD mice (NOD males, 10 mg/kg in miglyol, vs vehicle) it was “not”; in the experiment on EAE in NOD mice (NOD males, 30 mg/kg in miglyol, vs vehicle, 30 mg/kg), “improved EAE scores; also recorded: ameliorated”. Further, the “Rotarod Score” value in the experiment with EAE in C57BL/6 mice (C57BL/6 F, AC186 3 mg/kg, sesame vehicle) is “n.s”; in the experiment on EAE in C57BL/6 mice (C57BL/6 F, AC186 10 mg/kg, miglylol vehicle), “n.s”; in the experiment on EAE in C57BL/6 mice (C57BL/6 F, AC186 10 mg/kg, sesame vehicle) it was “n.s”; in the experiment with EAE in C57BL/6 mice (C57BL/6 F, AC186 30 mg/kg, miglylol vehicle), “*** (***p = 0.0004)”; with EAE in C57BL/6 mice (C57BL/6 F, AC186 30 mg/kg, sesame vehicle) it was “n.s”; in the experiment on EAE in C57BL/6 mice (C57BL/6 M, AC186 30 mg/kg, miglylol vehicle) it was “**** (****p < 0.0001)”. Moreover, the “Rotarod Score” value in the experiment on EAE in C57BL/6 mice (C57BL/6 M, AC186 30 mg/kg, sesame vehicle) is “n.s”. In addition, the Rotarod times result is reported as “significant efficacy in the rotarod experiment; also recorded: beneficial effects; also recorded: showed an improvement; also recorded: significant improvement” in the experiment on EAE in C57BL/6 mice (female C57BL/6, 30 mg/kg in miglyol, vs miglyol vehicle); “No significant effect was observed” in the experiment with EAE in C57BL/6 mice (female C57BL/6, 30 mg/kg in sesame oil, vs vehicle); “performed significantly better; also recorded: better rotarod scores” in the experiment with EAE in C57BL/6 mice (male C57BL/6, 30 mg/kg in miglyol, vs miglyol alone); “did not perform significantly better” in the experiment on EAE in C57BL/6 mice (male C57BL/6, 30 mg/kg in sesame oil, vs sesame oil alone). In addition, the “Rotarod performance at the final two time-points” value in the experiment on EAE in C57BL/6 mice (female C57BL/6, 30 mg/kg in sesame oil, days 48 and 50, 200 second test) is reported as “performed perfectly”.

These data come from patent publication US11628146B2, “Estrogen receptor ligand treatment for neurodegenerative diseases” (The Regents of the University of California, priority 2014, dated 2023).
